Data as given in US6458978B1, “Fluorous phosphines and process for their preparation” (Atofina Vlissingen B.V., priority 1998, dated 2002).

Tests used:
[1] = Hydrogenation of 1-octene under single phase conditions in α,α,α-trifluorotoluene; details: [Rh] 4.0 mM, [1-octene] 1.46 M; T = 80° C., p(H2) = 1 bar, α,α,α-trifluorotoluene
Method: To be able to directly compare the activities of fluorous derivatives H{1,6} and H{1,8} with non-fluorous [P(C6H4-4-SiMe3)3]3RhCl (H{0}) and the conventional Wilkinson catalyst (PPh3)3RhCl, homogeneous hydrogenation of 1-octene were carried out under single phase conditions in the hybrid solvent α,α,α-trifluorotoluene at atmospheric H2 pressures. Highest rates of hydrogen uptake (14.2 mol.L^−1.h^−1) were measured for 1c at relatively high rhodium and olefine concentrations (entry 2, Table 7). Under these conditions a zero-order dependence in [1-octene] was found up to ca 80% conversion resulting in a linear conversion versus time plot. In all other experiments ([Rh]=4.0-8.0 mM, [1-octene]0=1.46 M) rates of hydrogen uptake were lower (<11 mol.L^−1.h^−1) and conversion versus time plots corresponded to a rate law -d[1-octene]/dt=kobs.[1-octene] for >98% conversion allowing to evaluate catalyst activity in terms of the observed first order rate constant kobs. Since for these experiments the rates of dihydrogen uptake were well below the maximum value obtained in entry 2, diffusion limitation of H2 can be excluded. In addition to kobs, turn over frequencies (TOF in mol.mol^−1.h^−1) were derived from the tangent of a 4^thorder polynomal fit to conversion versus time plots at 25% conversion and serve as a measure of catalyst activity independent of any assumed kinetic relationship with substrate.
Catalytic reactions were carried out under single phase conditions in CF3C6H5 at 80° C. under 1 bar of hydrogen pressure. After >90% conversion (monitored by the H2 uptake) volatiles were distilled off and analyzed by GC. Activities (TOF) were determined for 25% conversion.

[2] = hydrogenation of 1-heptene in benzene; cited from earlier work

**Q.** Which “TOF(25%), turn over frequency at 25% conversion” value [1] does the source give for `[Cl-].[Rh].c1ccc(P(c2ccccc2)c2ccccc2)cc1.c1ccc(P(c2ccccc2)c2ccccc2)cc1.c1ccc(P(c2ccccc2)c2ccccc2)cc1` [(PPh3)3RhCl] here?
**A.** 960 h⁻¹

**Q.** And the “TON (mole of olefin/mole of Rh)” value [1]?
**A.** 358

**Q.** And the conversion [1]?
**A.** 98%

**Q.** And the “kobs (first order rate constant)” value [1]?
**A.** 4.0(1) h^−1

**Q.** And the TOF [2]?
**A.** 150 to 600 h⁻¹
